{"source": "patent US20220220481A1", "about": "“LIPID OLIGONUCLEOTIDE ANTISENSE AGAINST ANTIBIOTIC RESISTANCE” (priority 2019, published 2022)", "key": {"[1]": {"test_system": "E. coli K12 (CFX sensitive strain)", "experiment": "Ceftriaxone MIC with or without ASOs/LASOs, liquid micro-dilution, sensitive strain", "type": "cell-based, Escherichia coli", "details": "K12, 24 h, SD 0, n=3", "experimental": "(§1) Determination of minimum inhibitor concentration (MICs) of free CFX with or without ASOs/LASOs was performed on different strains of E. coli, i.e. the CFX sensitive strain K12, and the two resistant strains TcK12 and Ec3536.\n(§2) MICs of free CFX with ASOs/LASOs were determined in accordance with the standard method of liquid micro-dilution.\nEach bacterial strain that had been frozen at −80° C. was isolated on Mueller-Hinton (MH) agar during 16 h at 37° C. A bacterial suspension in solution of 0.85% NaCl was prepared in order to obtain a turbidity equivalent to standard 0.5 of McFarland range and then diluted 1/100 in MH that correspond to a bacterial inoculum of ca. 10^6 CFU/mL. The bacterial suspension was afterwards mixed with ASOs, LASOs at 2-fold desired concentration in MH. Then 50 μL of bacterial suspension mixed with 50 μl MH, containing oligonucleotides or CFX, was dispensed into the microplate wells immediately. The final volume per well was 100 μL. The concentration of oligonucleotides in well was fixed at 5 μM except for dose-effect tests. The concentration range of LASOs from 0.05 μM to 50 μM was tested. The range of CFX concentration was adjusted to surround the MIC of each bacterial strain. […]\n(§3) Preliminary data allowed to optimize the analysis of microplates using turbidimeter (Apollo LB 911 (Berthold)) at the wavelength of 620 nm, read in triplicate at 0 h, and 24 h. […]"}, "[2]": {"test_system": "E. coli TcK12 (resistant, blaCTX-M-15 plasmid)", "experiment": "Ceftriaxone MIC with or without ASOs/LASOs, liquid micro-dilution, resistant laboratory strain", "type": "cell-based, Escherichia coli", "details": "TcK12, 24 h", "description": "E. coli strains used included the clinical strain Ec3536 collected from a urine sample of the community patient and provided from the MFP Laboratory collection (Arpin et al. (2009) J. Antimicrob. Chemother. 63:1205-1214). Its conjugative plasmid containing the blaCTX-M-15 gene was transferred by conjugation experiment in a laboratory recipient cell of E. coli K12. Consequently, the transconjugant E. coli TcK12 was resistant to ceftriaxone (CFX) (Arpin et al. (2009) J. Antimicrob. Chemother. 63:1205-1214).\nas §1, §2\nEach bacterial strain that had been frozen at −80° C. was isolated on Mueller-Hinton (MH) agar during 16 h at 37° C. A bacterial suspension in solution of 0.85% NaCl was prepared in order to obtain a turbidity equivalent to standard 0.5 of McFarland range and then diluted 1/100 in MH that correspond to a bacterial inoculum of ca. 10^6 CFU/mL. […]\nas §3"}}, "data": [{"smiles": "CO/N=C(\\C(=O)N[C@@H]1C(=O)N2C(C(=O)O)=C(CSc3nc(=O)c(=O)[nH]n3C)CS[C@H]12)c1csc(N)n1", "note": "[CFX, ceftriaxone]", "values": [{"measurement": "CFX MIC in absence of antisense sequences", "setting": "[1]", "value": 0.06, "unit": "µg/mL"}, {"measurement": "CFX MIC without oligonucleotide (means of MICs)", "setting": "[2]", "value": 1365, "unit": "µg/mL"}]}]}
